Patent US6407088B1 (priority 2000, dated 2002)
Marks after values point to notes of the source that are not given here.

How the values were obtained:
[1] = system: Salmonella TA98; conditions: Dexon 50.0, −S9; control 36 ± 5
[2] = system: Salmonella TA100; conditions: Dexon 50.0, −S9; control 130 ± 11
[3] = system: Salmonella TA102; conditions: Dexon 50.0, −S9; control 270 ± 45
[4] = system: Salmonella TA97; conditions: Dexon 50.0, −S9; control 138 ± 18
[5] = system: Kunming mice; conditions: mouse, in vivo
[6] = system: Kunming mice; conditions: mouse, in vivo; remark: listed apart in the source
[7] = system: Kunming mice; conditions: Kunming, mouse, in vivo
[8] = system: mice; conditions: mouse, in vivo
[9] = system: Wistar rats; experiment: Formalin induced inflammation test in rats; conditions: rat, in vivo
[10] = system: rats; conditions: rat, in vivo
[11] = system: rats; experiment: Tail-flick test in rats; conditions: rat, in vivo
[12] = system: monkeys; conditions: rhesus monkey, in vivo
[13] = system: monkeys; conditions: rhesus monkey, in vivo; remark: listed apart in the source

In the case of `CN(C)c1ccc(N=NS(=O)(=O)[O-])cc1.[Na+]` [Dexon], the “Number of revertant Salmonella colonies, TA98” value [1] is reported as 604 ± 86, the “Number of revertant Salmonella colonies, TA100” value [2] is reported as 562 ± 50 and the “Number of revertant Salmonella colonies, TA102” value [3] is reported as 858 ± 79. The “Number of revertant Salmonella colonies, TA97” value [4] was 1567 ± 315.

In the case of `CN1C(=O)CN=C(c2ccccc2)c2cc(Cl)ccc21` [Diazepam], the “Number of autonomic mobility (X ± SD)” value [5] is reported as 323 ± 203 |||, the “Number of positively effected animals” value [6] is reported as 8 *** and the “Sleeping time (X ± SD)” value [7] is reported as 146.2 ± 53. ||| min.

`CN1CC[C@]23c4c5ccc(O)c4O[C@H]2[C@@H](O)C=C[C@H]3[C@H]1C5` [Morphine, morphine] was tested, and the “Jumping Frequency (X ± SD)” value [8] was 19.7 ± 16.3, the “Jumping Incidence (%)” value [8] was 90.0% and the “ID50 (95% CI)” value [9] was 2.74 mg/kg. The “ID50 (95% CI)” value ([9]; sc) was 2.63 (2.32 ˜ 2.98) mg/kg, the “Score of body weight loss (Mean ± SD)” value [10] was 10.00 ± 2.60 and the “Score of withdrawal symptoms (Mean ± SD)” value [10] was 7.38 ± 1.16. For the same compound, the Latency time [11] was greater than 20 min, the “Percentage change in body weight, Overall Mean X ± SD” value [12] was −6.1 and the “Score of Withdrawal Symptoms” value ([13]; Guangxi) was 61.0 ± 2.6. The “Body Weight Loss (%)” value [13] was 6.6 ± 1.7%.
